# Experimental data as given in ChEMBL document CHEMBL5226310, “Synthesis and Characterization of Novel Mono- and Bis-Guanyl Hydrazones as Potent and Selective ASIC1 Inhibitors Able to Reduce Brain Ischemic Insult” (J Med Chem, 2021).
# Active and inactive are the calls of the source. No cut-off for these calls is given here.
# Experiments:
# [1] = molecular target: T1, Acid-sensing ion channel 1 (Homo sapiens, UniProt P78348); test: Inhibition of human ASIC1a in HEK293 cells assessed as inward proton-gated current at pH 6.0 incubated with compound followed by PcTx1 addition by patch-clamp electrophysiology; assay type: cell-based
# T1 sequence (P78348 whole entry): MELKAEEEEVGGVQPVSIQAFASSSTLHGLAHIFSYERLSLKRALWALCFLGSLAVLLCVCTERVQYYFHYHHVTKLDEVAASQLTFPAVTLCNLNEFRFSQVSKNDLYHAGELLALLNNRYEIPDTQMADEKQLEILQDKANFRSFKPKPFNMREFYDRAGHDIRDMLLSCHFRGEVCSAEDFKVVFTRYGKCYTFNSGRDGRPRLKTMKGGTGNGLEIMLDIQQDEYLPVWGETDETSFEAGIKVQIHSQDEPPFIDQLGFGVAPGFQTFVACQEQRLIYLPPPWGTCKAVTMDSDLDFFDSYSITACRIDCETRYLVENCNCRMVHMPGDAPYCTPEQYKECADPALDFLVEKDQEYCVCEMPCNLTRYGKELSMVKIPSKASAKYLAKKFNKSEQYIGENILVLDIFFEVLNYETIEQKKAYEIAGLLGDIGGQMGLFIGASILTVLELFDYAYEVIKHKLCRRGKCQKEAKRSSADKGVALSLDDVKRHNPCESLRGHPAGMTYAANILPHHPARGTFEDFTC
# [2] = molecular target: T2, Acid-sensing ion channel 1 (Mus musculus) (UniProt Q6NXK8); test: Inhibition of mouse ASIC1a expressed in genetically engineered-CHO-K1 cells at 10 uM preincubated for 10 mins at pH 7.4 followed by cell stimulation with proton injection at pH 6.5 by electro-chromic fluorescence voltage sensor-based assay relative to control
# T2 sequence (whole entry): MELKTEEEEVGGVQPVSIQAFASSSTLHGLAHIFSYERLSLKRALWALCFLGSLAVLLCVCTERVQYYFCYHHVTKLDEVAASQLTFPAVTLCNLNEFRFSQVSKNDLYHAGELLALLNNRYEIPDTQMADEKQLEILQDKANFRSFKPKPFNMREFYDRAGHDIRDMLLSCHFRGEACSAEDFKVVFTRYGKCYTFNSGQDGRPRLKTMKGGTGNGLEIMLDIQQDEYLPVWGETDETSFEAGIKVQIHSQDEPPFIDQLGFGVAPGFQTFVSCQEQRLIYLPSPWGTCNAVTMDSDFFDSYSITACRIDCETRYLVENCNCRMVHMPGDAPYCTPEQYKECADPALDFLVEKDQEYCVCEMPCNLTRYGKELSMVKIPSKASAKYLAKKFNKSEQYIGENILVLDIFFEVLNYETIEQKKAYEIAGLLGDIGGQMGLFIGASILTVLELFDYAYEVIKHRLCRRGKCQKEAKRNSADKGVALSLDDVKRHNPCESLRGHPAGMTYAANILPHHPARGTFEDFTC
# [3] = test system: Cortical neurone; test: Neuroprotective activity in OGD/Rx-induced E16 Wistar rat Primary cortical neurons assessed as increase in cell viability at 0.52 uM incubated for 3 hrs during OGD followed by reoxygenation with compound re-addition measured after 21 hrs by MTT assay; assay type: functional, cell-based; conditions: time 24.0 hrs
# [4] = molecular target: T3, Acid-sensing ion channel 2 (Mus musculus) (UniProt Q925H0); test: Inhibition of mouse ASIC2a expressed in genetically engineered-CHO-K1 cells at 10 uM preincubated for 10 mins at pH 7.4 followed by cell stimulation with proton injection at pH 6.5 by electro-chromic fluorescence voltage sensor-based assay relative to control
# T3 sequence (whole entry): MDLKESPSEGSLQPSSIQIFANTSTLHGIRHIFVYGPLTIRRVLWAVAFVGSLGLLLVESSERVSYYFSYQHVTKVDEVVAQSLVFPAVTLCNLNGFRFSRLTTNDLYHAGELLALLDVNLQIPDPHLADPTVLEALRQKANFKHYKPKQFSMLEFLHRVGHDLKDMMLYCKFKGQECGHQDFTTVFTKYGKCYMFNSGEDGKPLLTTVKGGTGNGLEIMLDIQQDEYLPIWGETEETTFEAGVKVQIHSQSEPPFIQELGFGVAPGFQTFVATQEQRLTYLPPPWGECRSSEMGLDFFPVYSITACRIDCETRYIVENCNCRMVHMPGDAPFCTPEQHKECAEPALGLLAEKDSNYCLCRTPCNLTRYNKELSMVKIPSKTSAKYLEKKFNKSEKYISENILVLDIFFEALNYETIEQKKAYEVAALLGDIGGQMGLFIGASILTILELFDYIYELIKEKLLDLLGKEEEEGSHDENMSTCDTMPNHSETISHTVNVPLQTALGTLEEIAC
# [5] = test system: Cortical neurone; test: Neuroprotective activity in OGD/Rx-induced E16 Wistar rat Primary cortical neurons assessed as increase in cell viability at 2.9 uM incubated for 3 hrs during OGD followed by reoxygenation with compound re-addition measured after 21 hrs by MTT assay; assay type: functional, cell-based; conditions: time 24.0 hrs
# [6] = test system: Cortical neurone; test: Neuroprotective activity in OGD/Rx-induced E16 Wistar rat Primary cortical neurons assessed as increase in cell viability at 3.14 uM incubated for 3 hrs during OGD followed by reoxygenation with compound re-addition measured after 21 hrs by MTT assay; assay type: functional, cell-based; conditions: time 24.0 hrs
# [7] = test system: Cortical neurone; test: Neuroprotective activity in OGD/Rx-induced E16 Wistar rat Primary cortical neurons assessed as increase in cell viability at 3.14 uM incubated for 3 hrs during OGD followed by compound removal and reoxygenation measured after 21 hrs by MTT assay; assay type: functional, cell-based
# [8] = test system: Cortical neurone; test: Neuroprotective activity in OGD/Rx-induced E16 Wistar rat Primary cortical neurons assessed as increase in cell viability at 1.4 uM incubated for 3 hrs during OGD followed by compound removal and reoxygenation measured after 21 hrs by MTT assay; assay type: functional, cell-based
# [9] = test system: Cortical neurone; test: Neuroprotective activity in OGD/Rx-induced E16 Wistar rat Primary cortical neurons assessed as increase in cell viability at 1.41 uM incubated for 3 hrs during OGD followed by reoxygenation with compound re-addition measured after 21 hrs by MTT assay; assay type: functional, cell-based; conditions: time 24.0 hrs
# [10] = test system: Cortical neurone; test: Neuroprotective activity in OGD/Rx-induced E16 Wistar rat Primary cortical neurons assessed as increase in cell viability at 0.13 uM incubated for 3 hrs during OGD followed by reoxygenation with compound re-addition measured after 21 hrs by MTT assay; assay type: functional, cell-based; conditions: time 24.0 hrs
# [11] = test system: Mus musculus; test: Neuroprotective activity in mouse model of middle cerebral artery occlusion-induced transient brain ischemia assessed as decrease in ischemic volume at 0.8 mg/kg, ip administered thrice measured after 24 hrs (reference value: 58 +/- 2.6 %); assay type: functional; design: scale not given: the % may be the effect or the level left
# [12] = test system: Mus musculus; test: Neuroprotective activity in mouse model of middle cerebral artery occlusion-induced transient brain ischemia assessed as reduction in neurological deficits at 0.8 mg/kg, ip administered thrice measured after 24 hrs; assay type: functional, organism-based
Structure (SMILES),IC50 [1] [nM],inhibition [2] [%],inhibition [4] [%],Activity [3],Activity [5],Activity [6],Activity [7],Activity [8],Activity [9],Activity [10],Activity [11] [%],Activity [12]
CC(C)(C)c1ccc(-c2cccc(-c3ccc(/C=N/NC(=N)N)cc3)c2)cc1,2950,–,–,–,Active,–,–,–,–,–,–,–
Cn1nc(-c2ccc(F)cc2)cc1-c1ccc(/C=N/NC(=N)N)cc1,3140,16.8,96.6,–,–,Active,Active,–,–,–,–,–
Cn1nc(-c2ccc(/C=N/NC(=N)N)cc2)cc1-c1ccc(/C=N/NC(=N)N)cc1,1420,33.1,43.9,–,–,–,–,Active,Active,–,–,–

# More lines, in order of falling IC50 [1], values ahead:
IC50 [1] [nM],inhibition [2] [%],inhibition [4] [%],Structure (SMILES),Activity [3],Activity [5],Activity [6],Activity [7],Activity [8],Activity [9],Activity [10],Activity [11] [%],Activity [12]
972,-3.26,50.6,Br.Br.C(=N/NC1=NCCN1)/c1ccc(-c2cc(-c3ccc(/C=N/NC4=NCCN4)cc3)[nH]n2)cc1,–,–,–,–,–,–,Active,40.9,Active
518,72.9,69.7,COc1ccc(Cn2nc(-c3ccc(/C=N/NC(=N)N)cc3)cc2-c2ccc(/C=N/NC(=N)N)cc2)cc1,Active,–,–,–,–,–,–,–,–
